Columns and labels:
HepG2 = test: Hepatic absorption test; type: in vitro ADME, Human; conditions: NAC 12 mM, VitD 100 nM, G 5 mM, LA 50 μM
Method: Human epithelial cells (HepG2) were purchased from ATCC, and cultured in DMEM supplemented with 10% FBS, L-glutamine 2 mM and 1% penicillin-streptomycin, at 37° C., 5% CO2.

GTL-16 cell line = conditions: pre-digested model, 2, 3, 4 and 6 hours; NAC 12 mM, VitD 100 nM, G 5 mM
Method: The GTL-16 cell line, donated by the Laboratory of Histology, University of Eastern Piedmont (Italy), is a clonal line derived from a poorly differentiated gastric carcinoma cell line widely used as a model of gastric epithelial cells. Cells were cultured in Dulbecco's Modified Eagle medium (DMEM, Merck Life Science, Rome, Italy) supplemented with 10% fetal bovine serum (Fetal Bovine Serum, FBS), 1% penicillin-streptomycin, in an incubator at 37° C., 5% CO2. 1×10^4 cells were used to explore cell viability by MTT.
At the end of stimulation, cells were incubated with 1% MTT dye for 2 h at 37° C. in an incubator, 5% CO2 and 95% humidity, and then purple formazan crystals were dissolved in an equal volume of MTT solubilization solution.

ERK/MAPK = conditions: liver level; NAC 12 mM, VitD 100 nM, G 5 mM, LA 50 μM
Method: Human epithelial cells (HepG2) were purchased from ATCC, and cultured in DMEM supplemented with 10% FBS, L-glutamine 2 mM and 1% penicillin-streptomycin, at 37° C., 5% CO2. […] ERK/MAPK activity was measured by InstantOne™ ELISA (Thermo Fisher) on cell lysates following the manufacturer's instructions. The strips were measured by a spectrometer (VICTOR X4, multiwell plate reader) at 450 nm. Results were expressed as mean absorbance (%) compared with control.

NSC-34/IFRS1 co-culture = test: Mitochondrial metabolism at Peripheral Nervous System level; type: cell-based, rat; conditions: added to NAC 12 mM, VitD 100 nM, G 5 mM
Method: In order to recreate a peripheral nervous system in vitro, a myelinating co-culture system was used with an NSC-34 motor neuron-like cell line and an IFRS1 adult rat Schwann cell line according to a protocol reported in the literature. IFRS1 cells were seeded on 100-mm plastic discs (Greiner Bio-One GmbH, Frickenhausen, Germany, 664-160-013) at an approximate density of 2×10^4/cm^2 and maintained in DMEM containing 5% FBS, recombinant human eregulin-β (EMD Millipore, Billerica, MA, USA) 20 ng/mL, forskolin (Sigma, St. Louis, MO, USA) 5 μM and antifungal antibiotic solution (penicillin 100 U/mL, streptomycin 100 μg/mL and amphotericin 250 ng/mL; Sigma). NSC-34 cells were seeded on 100-mm plastic discs at an approximate density of 1×10^4/cm^2 and maintained in DMEM containing antibiotic antifungal solution and 5% FBS. At semi-confluence, cells were detached from the discs using 0.05% trypsin/EDTA 0.53 mM solution, suspended in DMEM/F12 Ham containing 5% FBS in a 50 mL polypropylene conical tube, and reseeded on Aclar fluorocarbon coverslips coated with poly-L-lysine/laminine, 12-well culture plates coated with type I collagen, and 2-well glass chamber slides coated with type I collagen at an approximate density of 2×10^3/cm^2. […]

| hepatic absorption (HepG2) | Compound | cell viability (GTL-16 cell line) | ERK activity (ERK/MAPK) | mitochondrial activity (NSC-34/IFRS1 co-culture) |
| --- | --- | --- | --- | --- |
| further increases hepatic absorption | N[C@@H](CCC(=O)N[C@@H](CS)C(=O)NCC(=O)O)C(=O)O [glutathione, (2S)-2-amino-5-[[(2R)-1-(carboxymethylamino)-1-oxo-3-sulfanylpropan-2-yl]amino]-5-oxopentanoic acid] | contributes to increased cell viability | further enhances the conservation of these biological activities | – |
| – | Vitamin D [VitD] | – | – | contributes to increased mitochondrial activity |

From patent publication US20250177338A1 (URIACH ITALY S.R.L., priority 2022, published 2025)
